Test results taken from US11673889B2, “Substituted imidazo[4,5-c][1,8]naphthyridines as phosphodiesterase inhibitors” (Nanjing Zhengxiang Pharmaceuticals Co., Ltd., priority 2019, dated 2023).

Key:
[1] = molecular target: T1, human soluble ENPP1 (Homo sapiens, UniProt P22413); assay: ENPP1 activity assay using p-Nitrophenyl-5′-TMP as a substrate; type: biochemical
T1 construct: 20 ng of human soluble ENPP1
T1 sequence (P22413 103-925 limits assumed): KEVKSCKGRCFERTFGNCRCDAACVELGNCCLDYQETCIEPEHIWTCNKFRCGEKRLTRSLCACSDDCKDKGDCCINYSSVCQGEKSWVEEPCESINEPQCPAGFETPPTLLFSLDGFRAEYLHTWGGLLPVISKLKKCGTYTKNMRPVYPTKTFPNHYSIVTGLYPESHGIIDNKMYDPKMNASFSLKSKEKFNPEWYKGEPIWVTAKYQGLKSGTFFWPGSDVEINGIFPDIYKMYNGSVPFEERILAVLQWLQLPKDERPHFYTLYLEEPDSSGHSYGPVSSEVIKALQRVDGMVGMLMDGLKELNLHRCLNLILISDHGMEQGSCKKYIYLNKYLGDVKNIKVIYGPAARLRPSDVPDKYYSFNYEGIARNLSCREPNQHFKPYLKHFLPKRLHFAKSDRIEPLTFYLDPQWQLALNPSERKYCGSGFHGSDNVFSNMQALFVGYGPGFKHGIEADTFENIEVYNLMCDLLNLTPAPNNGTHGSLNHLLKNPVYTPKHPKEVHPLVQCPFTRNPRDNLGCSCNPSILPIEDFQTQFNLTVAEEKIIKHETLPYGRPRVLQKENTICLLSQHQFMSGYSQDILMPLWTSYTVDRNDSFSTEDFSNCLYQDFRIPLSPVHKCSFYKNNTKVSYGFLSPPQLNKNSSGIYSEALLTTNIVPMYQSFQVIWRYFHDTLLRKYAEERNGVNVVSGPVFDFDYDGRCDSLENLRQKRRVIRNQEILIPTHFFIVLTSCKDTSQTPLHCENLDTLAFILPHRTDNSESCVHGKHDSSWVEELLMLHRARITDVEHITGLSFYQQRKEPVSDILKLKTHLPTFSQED
Protocol: ENPP1 is a transmembrane glycoprotein that hydrolyzes nucleotides and nucleotide derivatives with the formation of nucleotide-5′-monophosphates. ENPP1 hydrolyzes artificial phosphoric acid ester thymidine 5′monophosphate p-nitrophenyl ester (TMP-pNP) to nucleotide-5′-monophosphate and p-nitrophenol, which is a chromogenic product.
Load into a well with 20 ng of human soluble ENPP1 in 50 μL and incubate at room temperature with 25 μL inhibitor solution (4× Final Concentration) for 30 mins. Then, add 25 μL 2 mM TMP solution (2× Final Concentration) into the well, Incubate at RT for 1 hour.
(§1) The percent inhibition at each compound is calculated as follows: % inhibition=(ODMAX−ODCOMPOUND)/(ODMAX−ODMIN)*100. (MAX: absence of ENPP1 inhibitors control, MIN: blank control.)
The IC50 values for percent inhibition versus compound concentration were determined by fitting the inhibition curves using a four-parameter variable slope model in GraphPad Prism® 8.

[2] = molecular target: T1, human soluble ENPP1; assay: ENPP1 activity assay using p-Nitrophenyl-5′-AMP as a substrate; type: biochemical
Protocol: AMP-pNP can be used as substrate of ENPP-1. Its hydrolysis products were nucleotide-5′-monophosphate and p-nitrophcnol, which is also a chromogenic product. The amount of p-nitrophenol product formed is measured using its absorbance at 405 nm, which is directly proportional to enzyme activity.
Load into a well with […] of human soluble ENPP1 in 50 μL and incubate at room temperature with 25 μL inhibitor solution (4× Final Concentration) for 30 mins prior adding 25 μL 3 mM AMP solution (2× Final Concentration) into the well, Incubate at RT for 1 hour. The amounts of released p-nitrophenolate were measured by reading OD value at 405 nm.
as §1
(§2) The IC50 values for percent inhibition versus compound concentration are determined by fitting the inhibition curves using a four-parameter variable slope model in GraphPad Prism® 8.

[3] = molecular target: T2, ENPP-1, MDA-MB-231 cells (Homo sapiens, UniProt P22413); assay: cell-based; settings: for inhibition at 20 µM: MDA-MB-231, read-out: % Inhibition (at 20 μM)
T2 sequence (P22413 1-925): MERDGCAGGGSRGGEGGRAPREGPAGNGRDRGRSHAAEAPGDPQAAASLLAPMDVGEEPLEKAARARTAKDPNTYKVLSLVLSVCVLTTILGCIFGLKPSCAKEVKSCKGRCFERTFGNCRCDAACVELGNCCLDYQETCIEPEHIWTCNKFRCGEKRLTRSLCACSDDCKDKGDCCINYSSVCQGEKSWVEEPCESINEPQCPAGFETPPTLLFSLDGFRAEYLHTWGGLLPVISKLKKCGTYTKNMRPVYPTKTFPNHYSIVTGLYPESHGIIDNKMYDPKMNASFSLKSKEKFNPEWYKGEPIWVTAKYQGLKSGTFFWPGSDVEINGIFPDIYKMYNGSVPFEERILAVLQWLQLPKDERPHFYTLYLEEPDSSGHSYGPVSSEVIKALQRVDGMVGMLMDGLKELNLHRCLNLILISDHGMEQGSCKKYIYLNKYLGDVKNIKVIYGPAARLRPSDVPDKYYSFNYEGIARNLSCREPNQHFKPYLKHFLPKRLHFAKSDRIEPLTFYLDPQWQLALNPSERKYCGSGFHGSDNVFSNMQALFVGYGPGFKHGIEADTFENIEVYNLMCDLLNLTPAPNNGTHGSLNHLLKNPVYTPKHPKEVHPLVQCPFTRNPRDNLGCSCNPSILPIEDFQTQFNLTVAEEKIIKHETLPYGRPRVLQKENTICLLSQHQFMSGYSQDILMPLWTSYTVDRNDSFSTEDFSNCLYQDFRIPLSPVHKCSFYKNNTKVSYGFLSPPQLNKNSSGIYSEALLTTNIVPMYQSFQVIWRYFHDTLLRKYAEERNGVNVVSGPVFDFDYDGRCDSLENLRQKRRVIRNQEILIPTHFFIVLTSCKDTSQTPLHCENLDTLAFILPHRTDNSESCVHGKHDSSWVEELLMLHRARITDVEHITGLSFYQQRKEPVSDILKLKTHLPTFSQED
Protocol: ENPP-1 were mainly expressed on the surface of cell membrane where it hydrolytes 2′3′-cGAMP to generate 5′-GMP and 5′-AMP. ENPP-1 also has the ability to hydrolyzes artificial phosphoric acid ester TMP-pNP to nucleotide-5′-monophosphate and p-nitrophcnol there, which is a chromogenic product.
8 point of different concentrations of each inhibitor were prepared with the final assay concentrations starting at 20 μM. 3× series dilution by DMEM medium without FBS was applied. Prior to adding inhibitors, 75000 cells per well were incubated at 37° C., 5% CO2 in DMEM for 24 hours. After removing the supernatant medium, 50 μL inhibitor solution was added into each well with cultured cells and incubate at 37° C., 5% CO2 for 60 minutes.
as §2

[4] = substrate TMP-pNP, 20 ng human soluble ENPP1, Tris buffer pH 9.5, read-out: TMP-pNP (IC50)

Compound	IC50 [1] [nM]	IC50 [2] [nM]	IC50 [3] [nM]	inhibition at 20 µM [3] [%]	IC50 [1, 4] [nM]
COc1ccc2c(n1)nc(C)c1ncn(Cc3ccc(S(N)(=O)=O)c(F)c3)c12 [Compound 88, 2-fluoro-4-((7-methoxy-4-methyl-1H-imidazo[4,5-c][1,8]naphthyridin-1-yl)methyl)benzenesulfonamide]	4	12	2200	81	–
COCc1nc2cnc3nc(OC)ccc3c2n1Cc1ccc(S(N)(=O)=O)c(F)c1 [Compound 79, 2-fluoro-4-((7-methoxy-2-(methoxymethyl)-1H-imidazo[4,5-c][1,8]naphthyridin-1-yl)methyl)benzenesulfonamide]	2.1	9.2	1900	74	–
COc1ccc2c(ncc3nc(C4CN(S(C)(=O)=O)C4)n(Cc4ccc(S(N)(=O)=O)c(F)c4)c32)n1 [Compound 86, 2-fluoro-4-((7-methoxy-2-(1-(methylsulfonyl)azetidin-3-yl)-1H-imidazo[4,5-c][1,8]naphthyridin-1-yl)methyl)benzenesulfonamide]	0.81	3.2	620	80	–
COc1ccc2c(ncc3nc(CS(C)(=O)=O)n(Cc4ccc(S(N)(=O)=O)c(F)c4)c32)n1 [Compound 81, 2-fluoro-4-((7-methoxy-2-((methylsulfonyl)methyl)-1H-imidazo[4,5-c][1,8]naphthyridin-1-yl)methyl)benzenesulfonamide]	6.9	23	4900	63	–
COc1ccc2c(ncc3ncn(Cc4ccc(S(N)(=O)=O)cc4C(F)(F)F)c32)n1 [Compound 67, 4-((7-methoxy-1H-imidazo[4,5-c][1,8]naphthyridin-1-yl)methyl)-3-(trifluoromethyl)benzenesulfonamide]	–	8.6	1300	80	2.3
COc1ccc2c(ncc3nc(C)n(Cc4ccc(S(=O)(=O)NC(C)=O)cn4)c32)n1 [Compound 77, N-((6-((7-methoxy-2-methyl-1H-imidazo[4,5-c][1,8]naphthyridin-1-yl)methyl)pyridin-3-yl)sulfonyl)acetamide]	8.6	15	4800	65	–
COc1ccc2c(ncc3nc(C4CNC4)n(Cc4ccc(S(N)(=O)=O)c(F)c4)c32)n1 [Compound 85, 4-((2-(azetidin-3-yl)-7-methoxy-1H-imidazo[4,5-c][1,8]naphthyridin-1-yl)methyl)-2-fluorobenzenesulfonamide]	2	5.2	900	79	–
COc1ccc2c(ncc3[nH]c(=O)n(Cc4ccc(S(N)(=O)=O)c(F)c4F)c32)n1 [Compound 95, 2,3-difluoro-4-((7-methoxy-2-oxo-2,3-dihydro-1H-imidazo[4,5-c][1,8]naphthyridin-1-yl)methyl)benzenesulfonamide]	–	4.6	1400	75	1.4
COc1ccc2c(ncc3nc(CC(N)=O)n(Cc4ccc(S(N)(=O)=O)c(F)c4)c32)n1 [Compound 84, 2-(1-(3-fluoro-4-sulfamoylbenzyl)-7-methoxy-1H-imidazo[4,5-c][1,8]naphthyridin-2-yl)acetamide]	–	8.4	2500	76	3.5

The next lines start with the values.

IC50 [1] [nM]	IC50 [2] [nM]	IC50 [3] [nM]	inhibition at 20 µM [3] [%]	IC50 [1, 4] [nM]	Compound
0.27	0.79	600	77	–	COc1ccc2c(ncc3[nH]c(=O)n(Cc4ccc(S(N)(=O)=O)cn4)c32)n1 [Compound 99, 6-((7-methoxy-2-oxo-2,3-dihydro-1H-imidazo[4,5-c][1,8]naphthyridin-1-yl)methyl)pyridine-3-sulfonamide]
–	0.99	70	80	0.3	COc1ccc2c(ncc3[nH]c(=O)n(Cc4c(F)cc(S(N)(=O)=O)c(F)c4F)c32)n1 [Compound 112, 2,3,5-trifluoro-4-((7-methoxy-2-oxo-2,3-dihydro-1H-imidazo[4,5-c][1,8]naphthyridin-1-yl)methyl)benzenesulfonamide]
7.2	21	2.7	82	–	COc1ccc2c(ncc3nc(C)n(Cc4cc(F)c(P(=O)(O)O)cc4F)c32)n1 [Compound 125, (2,5-difluoro-4-((7-methoxy-2-methyl-1H-imidazo[4,5-c][1,8]naphthyridin-1-yl)methyl)phenyl)phosphonic acid]
–	2.6	150	86	0.6	COc1ccc2c(ncc3[nH]c(=O)n(Cc4c(F)cc(C(=O)NO)cc4F)c32)n1 [Compound 110, 3,5-difluoro-N-hydroxy-4-((7-methoxy-2-oxo-2,3-dihydro-1H-imidazo[4,5-c][1,8]naphthyridin-1-yl)methyl)benzamide]
7.4	21	0.31	80	–	COc1ccc2c(n1)nc(C)c1nnn(Cc3ccc(S(N)(=O)=O)cn3)c12 [Compound 136, 6-((7-methoxy-4-methyl-1H-[1,2,3]triazolo[4,5-c][1,8]naphthyridin-1-yl)methyl)pyridine-3-sulfonamide]
–	5	250	72	1.1	COc1ccc2c(n1)nc(C)c1[nH]c(=O)n(Cc3c(F)cc(S(N)(=O)=O)cc3F)c12 [Compound 113, 3,5-difluoro-4-((7-methoxy-4-methyl-2-oxo-2,3-dihydro-1H-imidazo[4,5-c][1,8]naphthyridin-1-yl)methyl)benzenesulfonamide]
